molecular target: RORγ (Homo sapiens, UniProt P51449); assay: RORγ Gal4 Reporter Gene Assay; format: cell-based; settings: not given
Protocol: Determination of a ligand mediated Gal4 promoter driven transactivation to quantify ligand binding to RORγ was performed as follows: DNA encoding three different RORγ protein fragments was cloned into vector pCMV-BD (Stratagene). Expression was under control of a CMV promoter and as fusion to the DNA-binding domain of the yeast protein GAL4. Other vectors used were pFR-Luc (Stratagene) as regulated reporter plasmid. pFR-Luc contains a synthetic promoter with five tandem repeats of the yeast GAL4 binding sites that control expression of the Photinus pyralis (American firefly) luciferase gene. In order to improve experimental accuracy the plasmid pRL-CMV was cotransfected. pRL-CMV contains the constitutive CMV promoter, controlling the expression of the Renilla reniformis luciferase.
The medium is supplemented with 10% fetal bovine serum, 0.1 mM nonessential amino acids, 1 mM sodium pyruvate, 1% Glutamax and 100 units Penicilin/[…] per mL at 37° C. in 5% CO2.
For the assay, […] were plated per well in 96 well plates in 100 μL per well, incubated over night at 37° C. in 5% CO2. […] About 4 h after addition of the transfection solution, fresh Minimal Essential Medium (MEM, same composition as used for plating cells, but without serum) was added. Then compound stocks, prediluted in MEM (same composition as used for plating cells) were added (final vehicle concentration not exceeding 0.1%).
All experiments were done at least in triplicates.

RORγ, sequence (P51449 whole entry, looked up, the tested form may be a part): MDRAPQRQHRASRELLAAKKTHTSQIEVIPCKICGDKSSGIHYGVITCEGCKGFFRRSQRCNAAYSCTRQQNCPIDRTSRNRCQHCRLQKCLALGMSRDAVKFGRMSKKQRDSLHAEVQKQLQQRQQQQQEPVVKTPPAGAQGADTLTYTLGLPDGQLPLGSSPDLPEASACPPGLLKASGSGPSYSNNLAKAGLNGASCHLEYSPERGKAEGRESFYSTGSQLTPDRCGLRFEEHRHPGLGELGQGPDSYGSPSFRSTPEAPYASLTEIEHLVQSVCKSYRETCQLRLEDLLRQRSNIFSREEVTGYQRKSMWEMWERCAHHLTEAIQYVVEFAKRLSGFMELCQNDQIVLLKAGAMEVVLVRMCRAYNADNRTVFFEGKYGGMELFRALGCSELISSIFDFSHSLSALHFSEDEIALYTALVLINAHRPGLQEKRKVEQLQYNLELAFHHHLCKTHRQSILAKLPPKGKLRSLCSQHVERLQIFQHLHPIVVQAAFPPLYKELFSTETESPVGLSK

Row | SMILES | pIC50 (FF) | pIC50 (REN)
1 | CC(C)(C)NS(=O)(=O)c1ccc(-c2oc(C(=O)N[C@H]3C[C@H](C(=O)O)C3)nc2CC2CCCCC2)cc1C(C)(C)C [100/2] | 5.5/6.4/6.3 | 5.5/6.4/6.3
2 | CC(C)(C)NS(=O)(=O)c1ccc(-c2sc(C(=O)NC34CCC(C(=O)O)(CC3)CC4)nc2CC2CCCCC2)c2ccccc12 [6/8] | 6.3/8.2/8.2 | 6.3/8.2/8.2
3 | CNS(=O)(=O)c1ccc(-c2sc(C(=O)N3CC4(CCS(=O)(=O)CC4)C3)nc2CC2CCCCC2)c2ccccc12 [14/5] | 6.3/6.6/6.6 | 6.3/6.6/6.6
4 | C[C@H](NS(=O)(=O)c1ccc(-c2sc(C(=O)NCC(C)(C)O)nc2CC2CCC2)c(C(F)(F)F)c1)C(F)(F)F [21/20] | nt/7.7/7.7 | nt/7.7/7.7
5 | CC(C)(C)NS(=O)(=O)c1ccc(-c2sc(C(=O)NC3CCS(=O)(=O)CC3)nc2-c2cccnc2)c2ccccc12 [300/12] | nt/6.1/6.2 | nt/6.1/6.2
6 | CC(C)(C)NS(=O)(=O)c1ccc(-c2sc(C(=O)N3CCS(=O)(=O)CC3)nc2CC2CCCCC2)c2ccccc12 [6/55] | nt/8.0/8.2 | nt/8.0/8.2
7 | CC1CCN(C(=O)c2nc(C(=O)NCC(C)(C)O)sc2-c2ccc(S(=O)(=O)NCC(C)(C)C)c3ccccc23)CC1 [304/19] | nt/7.4/7.5 | nt/7.4/7.5
8 | CC1CCN(C(=O)c2nc(C(=O)NC3CC34CCOCC4)sc2-c2ccc(S(=O)(=O)NC(C)(C)C)c3ccccc23)CC1 (centres unmarked) [304/18] | nt/7.5/7.7 | nt/7.5/7.7
9 | CCN(C(C)(C)C)S(=O)(=O)c1ccc(-c2sc(C(=O)NCC(C)(C)O)nc2C(=O)N2CCC(C)CC2)c2ccccc12 [304/20] | nt/7.4/7.7 | nt/7.4/7.7
10 | C[C@H](NS(=O)(=O)c1ccc(-c2sc(C(=O)NCC(C)(C)O)nc2CC2CCC2)c(OC(F)(F)F)c1)C(F)(F)F [21/18] | nt/8.0/8.1 | nt/8.0/8.1
11 | CC1CCN(C(=O)c2nc(C(=O)NCC(C)(C)O)sc2-c2ccc(S(=O)(=O)NC3(C)CCC3)c3ccccc23)CC1 [304/26] | nt/8.0/7.9 | nt/8.0/7.9
12 | CC(C)(C)NS(=O)(=O)c1ccc(-c2oc(C(=O)NC3CCS(=O)(=O)CC3)nc2CC2CCCCC2)c2ccncc12 [100/28] | nt/7.1/7.2 | nt/7.1/7.2
13 | CC(C)(C)NS(=O)(=O)c1ccc(-c2sc(C(=O)NC3CCS(=O)(=O)CC3)nc2-c2cccc(C#N)c2)c2ccccc12 [300/15] | nt/7.3/7.4 | nt/7.3/7.4
14 | CC(C)(C)NS(=O)(=O)c1ccc(-c2sc(C(=O)NC3CCS(=O)(=O)CC3)nc2C2CCC2)c2ccccc12 [300/10] | nt/7.2/7.3 | nt/7.2/7.3
15 | CC(C)(C)c1cc(-c2nc(C(=O)NC3CCS(=O)(=O)CC3)oc2CC2CCCCC2)cc(C2(C)CC2)c1 [103/3] | nt/6.6/6.6 | nt/6.6/6.6
16 | Cc1c(-c2sc(C(=O)NC3CCS(=O)(=O)CC3)nc2CC2CCCCC2)cc(Cl)c(S(N)(=O)=O)c1Cl [17/2] | nt/5.7/5.9 | nt/5.7/5.9
17 | CC(C)(C)NS(=O)(=O)c1ccc(-c2sc(C(=O)N[C@H]3C[C@H](C(=O)O)C3)cc2CC2CCCCC2)c2ccccc12 [Example 307, trans-3-(5-(4-(N-(tert-Butyl)sulfamoyl)naphthalen-1-yl)-4-(cyclohexylmethyl)thiophene-2-carboxamido)cyclobutanecarboxylic acid] | nt/8.2/8.3 | nt/8.2/8.3
18 | CC(C)(CCO)NC(=O)c1cc(-c2sc(C(=O)NC3CCS(=O)(=O)CC3)nc2CC2CCCCC2)cc(C2(C)CC2)c1 [10/3] | nt/7.9/8.0 | nt/7.9/8.0
19 | CCC(C)(C)NS(=O)(=O)c1ccc(-c2sc(C(=O)N3CC4(C3)CS(=O)(=O)C4)nc2C(=O)N2CCC(C)CC2)c(Cl)c1C [301/2] | nt/7.7/7.8 | nt/7.7/7.8

Row | SMILES | pIC50 (FF) | pIC50 (REN)
20 | CCC1CCN(C(=O)c2nc(C(=O)NCC(C)(C)O)sc2-c2ccc(S(=O)(=O)NC(C)(C)C)c3ccccc23)CC1 [304/10] | nt/7.5/7.5 | nt/7.5/7.5
21 | C[C@H](NS(=O)(=O)c1ccc(-c2sc(C(=O)NCC(C)(C)O)nc2CC2CCC2)c(OC(F)F)c1)C(F)(F)F [21/21] | nt/7.7/7.8 | nt/7.7/7.8
22 | CC(C)(C)NS(=O)(=O)c1ccc(-c2sc(C(=O)N3CCC(C(C)(C)C(=O)O)C3)nc2CC2CCCCC2)c2ccccc12 (centres unmarked) [6/50] | nt/7.6/7.7 | nt/7.6/7.7
23 | CC(C)(C)NS(=O)(=O)c1ccc(-c2nc(C(=O)NC3CCS(=O)(=O)CC3)sc2CC2CCCCC2)c2ccccc12 [25/2] | nt/9.0/9.0 | nt/9.0/9.0
24 | CC(C)(O)CNC(=O)c1nc(CC2CCCCC2)c(-c2ccc(S(=O)(=O)NC(C)(C)C)cc2OC(F)(F)F)s1 [21/8] | nt/7.7/7.8 | nt/7.7/7.8
25 | CC1CCN(C(=O)c2nc(C(=O)NCC(C)(C)O)sc2-c2ccc(S(=O)(=O)N[C@@H](C)C(F)(F)F)c3ccccc23)CC1 [304/12] | nt/7.7/7.7 | nt/7.7/7.7
26 | CC(C)(C)NS(=O)(=O)c1ccc(-c2sc(C(=O)NC3CCS(=O)(=O)CC3)nc2CC2CCC(F)(F)CC2)c2ccccc12 [21/12] | nt/8.0/8.2 | nt/8.0/8.2
27 | CC(C)(C)NS(=O)(=O)c1cc(Cl)c(-c2sc(C(=O)N[C@H]3C[C@H](C(=O)O)C3)nc2CC2CCCCC2)cc1Cl [19/11] | nt/7.6/7.7 | nt/7.6/7.7
28 | CCC(C)(C)NS(=O)(=O)c1ccc(-c2sc(C(=O)NC3CCOCC3)nc2C(=O)N2CCC(C)CC2)c2ccccc12 [304/15] | nt/7.6/7.7 | nt/7.6/7.7
29 | CC1CCCN(C(=O)c2nc(C(=O)NCC(C)(C)O)sc2-c2ccc(S(=O)(=O)NC(C)(C)C)c3ccccc23)C1C (centres unmarked) [304/9] | nt/7.3/7.4 | nt/7.3/7.4
30 | CC1(NC(=O)c2cc(-c3sc(C(=O)NC4CCS(=O)(=O)CC4)nc3CC3CCCCC3)cc(C3(C)CC3)c2)COC1 [10/4] | nt/7.9/7.9 | nt/7.9/7.9
31 | CCC(C)(C)NS(=O)(=O)c1ccc(-c2sc(C(=O)NC3CCS(=O)(=O)CC3)nc2C(=O)N2CCC(C)CC2)c2ccccc12 [304/14] | nt/7.5/7.6 | nt/7.5/7.6
32 | CC(C)(C)NS(=O)(=O)c1ccc(-c2sc(C(=O)NC3CCS(=O)(=O)CC3)cc2CC2CCCCC2)c2ccccc12 [Example 307/1] | nt/8.4/8.5 | nt/8.4/8.5
33 | CCC(C)(C)NS(=O)(=O)c1ccc(-c2sc(C(=O)NCc3ncc(S(C)(=O)=O)s3)nc2C(=O)N2CCC(C)CC2)c(Cl)c1C [Example 303, 5-(2-Chloro-3-methyl-4-(N-(tert-pentyl)sulfamoyl)phenyl)-4-(4-methylpiperidine-1-carbonyl)-N-((5-(methylsulfonyl)thiazol-2-yl)methyl)thiazole-2-carboxamide] | nt/7.7/7.7 | nt/7.7/7.7
34 | CCC(C)(C)NS(=O)(=O)c1ccc(-c2sc(C(=O)NCC(C)(C)O)nc2C(=O)N2CCC(C)CC2)c2ccccc12 [304/13] | nt/7.6/7.7 | nt/7.6/7.7
35 | CC1CCN(C(=O)c2nc(C(=O)N3CC4(CCS(=O)(=O)CC4)C3)sc2-c2ccc(S(=O)(=O)NC(C)(C)C)c3ccccc23)CC1 [304/16] | nt/6.6/6.6 | nt/6.6/6.6
36 | CC(C)(O)CNC(=O)c1nc(C(=O)N2CCCCC2(C)C)c(-c2ccc(S(=O)(=O)NC(C)(C)C)c3ccccc23)s1 [304/6] | nt/6.6/6.8 | nt/6.6/6.8
37 | CC(C)(O)CNC(=O)c1nc(C(F)F)c(-c2ccc(S(=O)(=O)NC(C)(C)C)c3ccccc23)s1 [Example 305, 5-(4-(N-(tert-butyl)sulfamoyl)naphthalen-1-yl)-4-(difluoromethyl)-N-(2-hydroxy-2-methylpropyl)thiazole-2-carboxamide] | nt/6.6/7.2 | nt/6.6/7.2

same assay, conditions: firefly (FF) luciferase, 293T cells; read-out: pIC50 (FF) (converted)

Row | SMILES | IC50
38 | C[C@H](NS(=O)(=O)c1ccc(-c2sc(C(=O)NC3CCS(=O)(=O)CC3)nc2CC2CCCC2)c2ccccc12)C(F)(F)F [8/11] | 1 nM
39 | C[C@H](NS(=O)(=O)c1ccc(-c2sc(C(=O)NC3CCS(=O)(=O)CC3)nc2CC2CCCC2)c(Cl)c1Cl)C(F)(F)F [8/12] | 1.26 nM
40 | CC(C)(C)NS(=O)(=O)c1ccc(-c2sc(C(=O)N[C@H]3C[C@H](C(=O)O)C3)nc2Cc2ccccc2)c2ccccc12 [300/18] | 31.6 nM

same assay, conditions: renilla normalised (RENnorm) luciferase, 293T cells; read-out: pIC50 (REN) (converted)

Row | SMILES | IC50
41 | C[C@H](NS(=O)(=O)c1ccc(-c2sc(C(=O)NC3CCS(=O)(=O)CC3)nc2CC2CCCC2)c2ccccc12)C(F)(F)F [8/11] | 1 nM
42 | C[C@H](NS(=O)(=O)c1ccc(-c2sc(C(=O)NC3CCS(=O)(=O)CC3)nc2CC2CCCC2)c(Cl)c1Cl)C(F)(F)F [8/12] | 1.26 nM
43 | CC(C)(C)NS(=O)(=O)c1ccc(-c2sc(C(=O)N[C@H]3C[C@H](C(=O)O)C3)nc2Cc2ccccc2)c2ccccc12 [300/18] | 25.1 nM

molecular target: RORγ ligand binding domain (LBD) (Homo sapiens (Human), UniProt P51449); assay: TR-FRET Activity Assay (ligand sensing assay, LANCE); settings: TR-FRET, interaction of RORγ-LBD with coactivator peptide
Sequence (P51449 269-508): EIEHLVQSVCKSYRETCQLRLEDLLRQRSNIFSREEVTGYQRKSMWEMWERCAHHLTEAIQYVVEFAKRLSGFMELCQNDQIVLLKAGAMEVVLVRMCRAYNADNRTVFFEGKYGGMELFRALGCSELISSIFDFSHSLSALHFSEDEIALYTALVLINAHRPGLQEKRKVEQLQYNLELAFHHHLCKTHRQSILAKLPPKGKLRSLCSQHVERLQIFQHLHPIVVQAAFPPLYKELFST
From the text: The ligand-binding domain (LBD) of RORγ was expressed as fusion protein with GST in BL-21 (BL3) cells using the vector pDEST15. Cells were lysed by lysozyme-treatment and sonication, and the fusion proteins purified over glutathione sepharose (Pharmacia) according to the manufacturers instructions. For screening of compounds for their influence on the RORγ-peptide interaction, the LANCE technology (Perkin Elmer) was applied. This method relies on the binding dependent energy transfer from a donor to an acceptor fluorophor attached to the binding partner of interest. For ease of handling and reduction of background from compound fluorescence LANCE technology makes use of generic fluorophore labels and time resolved detection assays were done in a final volume of 25 μL in a 384 well plate, in a Tris-based buffer system (20 mM Tris-HCl pH 6.8; 60 mM KCl, 1 mM DTT; 5 mM MgCl2; 35 ng/μL BSA), containing 20-60 ng/well recombinantly expressed RORγ-LBD fused to GST, 200-600 nM N-terminally biotinylated peptide, 200 ng/well Streptavidin-xlAPC conjugate (Prozyme) and 6-10 ng/well Eu W1024-antiGST (Perkin Elmer). DMSO content of the samples was kept at 1%.
After generation of the Tris-based buffer system, the potentially RORγ modulating ligands were diluted. […] The LANCE signal was detected by a Perkin Elmer EnVision™ Multilabel Counter. […] Ligands that promote the complex formation induce a concentration-dependent increase in time-resolved fluorescent signal.
Y is the response. Y starts at Bottom and goes to Top with a sigmoidal shape.
This is identical to the “four parameter logistic equation”. The IC50 values are calculated using this equation.

Row | SMILES | pIC50 (FRET)
44 | CC(C)(C)NS(=O)(=O)c1ccc(-c2oc(C(=O)N[C@H]3C[C@H](C(=O)O)C3)nc2CC2CCCCC2)cc1C(C)(C)C [100/2] | 5.5/6.4/6.3
45 | CC(C)(C)NS(=O)(=O)c1ccc(-c2sc(C(=O)NC34CCC(C(=O)O)(CC3)CC4)nc2CC2CCCCC2)c2ccccc12 [6/8] | 6.3/8.2/8.2
46 | CNS(=O)(=O)c1ccc(-c2sc(C(=O)N3CC4(CCS(=O)(=O)CC4)C3)nc2CC2CCCCC2)c2ccccc12 [14/5] | 6.3/6.6/6.6

Reference: US10301272B2, “Carboxamide or sulfonamide substituted thiazoles and related derivatives as modulators for the orphan nuclear receptor ROR[γ]” (Phenex Pharmaceuticals AG, priority 2012, dated 2019)
